Tests used:
A2780 = assay: Cell cytotoxicity was determined against human ovarian cancer (A2780) cell line; assay type: functional, cell-based
HL-60 = assay: Cell cytotoxicity was determined against human promyelocytic leukemia (HL60) cell line; assay type: functional, cell-based
[1] = target: T1, DNA topoisomerase II (Homo sapiens) (UniProt P11388+Q02880); assay: Percent of DNA remaining uncut after incubation with Topoisomerase II at 10 uM concentration; assay type: protein assay
[2] = target: T1, DNA topoisomerase II (Homo sapiens); assay: Percent of DNA remaining uncut after incubation with Topoisomerase II at 0.1 uM concentration; assay type: protein assay
[3] = target: T1, DNA topoisomerase II (Homo sapiens); assay: Percent of DNA remaining uncut after incubation with Topoisomerase II at 1 uM concentration; assay type: protein assay

Structure (SMILES)	Uncut DNA [1] [%]	Uncut DNA [2] [%]	Uncut DNA [3] [%]	IC50 (A2780) [µM]	IC50 (HL-60) [µM]
C(=N\NC1=NCCN1)/c1ccc(/C=N/NC2=NCCN2)c2cc3ccccc3cc12	95	54	103	4.8	11.2
C(=N\NC1=NCCN1)/c1c2ccccc2c(/C=N/NC2=NCCN2)c2ccccc12 [BISANTRENE]	57	14	46	0.34	0.3

More lines, main results first:

Uncut DNA [1] [%]	Uncut DNA [2] [%]	Uncut DNA [3] [%]	Structure (SMILES)	IC50 (A2780) [µM]	IC50 (HL-60) [µM]
25	51	38	C(=N\NC1=NCCN1)/c1c2ccccc2nc2ccccc12	28.1	48.1
1	12	4	COc1cc(NS(C)(=O)=O)ccc1Nc1c2ccccc2nc2ccccc12 [AMSACRINE]	0.35	0.4
11	41	30	C(=N\NC1=NCCN1)/c1c2ccccc2cc2ccccc12	37.8	73.5
20	56	48	C(=N\NC1=NCCN1)/c1cccc2cc3ccccc3cc12	18.6	23
